Tested on: TLR8, TLR7
Test: TLR agonism classification (TLR8 versus TLR7 agonist)
Type: cell-based
Conditions: classification in words; agonist of TLR8 but not TLR7 = TLR8-selective; no numeric data given
Source text: The TLR agonism for a particular compound may be assessed in any suitable manner. […] The assay used to assess the agonism of a compound with respect to one TLR may be the same as, or a different than, the assay used to assess the agonism of the compound with respect to another TLR.
Similarly, a compound may be identified as not acting as a TLR7 agonist (i.e., a TLR7 non-agonist) if, when used to perform an assay designed to detect TLR7-mediated biological activity, the compound fails to elicit a threshold increase in TLR7-mediated biological activity. […] An assay may or may not be performed in conjunction with the appropriate control.
Assays employing HEK293 cells transfected with an expressible TLR structural gene may use a threshold of, for example, at least a three-fold increase in a TLR-mediated biological activity (e.g., NFKB activation) when the compound is provided at a concentration of, for example, from about 1 μM to about 30 μM for identifying a compound as an agonist of the TLR transfected into the cell. However, different thresholds and/or different concentration ranges may be suitable in certain circumstances. Also, different thresholds may be appropriate for different assays.

| SMILES | TLR agonist selectivity (TLR7/TLR8) as stated for the compound |
| --- | --- |
| CCc1nc2c(N)nc3ccccc3c2n1CCCCNS(C)(=O)=O [Compound 3, N-[4-(4-amino-2-ethyl-1H-imidazo[4,5-c]quinolin-1-yl)butyl]methanesulfonamide] | TLR7-selective agonist |
| CCCCCCCCCCCCCCCC(=O)NCCOCCn1c(CCOC)nc2c(N)nc3ccccc3c21 [Compound 5, N-(2-{2-[4-amino-2-(2-methoxyethyl)-1H-imidazo[4,5-c]quinolin-1-yl]ethoxy}ethyl)hexadecanamide] | TLR8-selective agonist |
| CCOCc1nc2c(N)nc3c(c2n1CC(C)(C)O)CCCC3 [Compound 2, 4-amino-2-(ethoxymethyl)-α,α-dimethyl-6,7,8,9-tetrahydro-1H-imidazo[4,5-c]quinoline-1-ethanol] | TLR7/8 agonist |
| CCOCc1nc2c(N)nc3ccccc3c2n1CCNS(C)(=O)=O [Compound 6, N-{2-[4-amino-2-(ethoxymethyl)-1H-imidazo[4,5-c]quinolin-1-yl]ethyl}methanesulfonamide] | TLR8-selective agonist |
| CC(C)Cn1cnc2c(N)nc3ccccc3c21 [Compound 4, 1-(2-methylpropyl)-1H-imidazo[4,5-c]quinolin-4-amine, reference compound] | TLR7-selective agonist |

Source: patent US20050096259A1, “Neutrophil activation by immune response modifier compounds” (3M Innovative Properties Company, priority 2003, published 2005)
